Data taken from ChEMBL document CHEMBL2163308, “Small molecule activators of proteasome-related HslV peptidase” (Bioorg Med Chem Lett, 2012).

Key:
[1] = system: Escherichia coli; assay: Activation of recombinant Escherichia coli HslV expressed in Escherichia coli BL21( DE3) cells using Z-GGL-AMC as substrate by fluorescence analysis
[2] = Activation of recombinant Escherichia coli HslU C-tail expressed in Escherichia coli BL21( DE3) cells using Z-GGL-AMC as substrate by fluorescence analysis

For `O=C(N/N=C/c1cc(=O)c2ccccc2o1)c1ccccc1`, the ED50 [1] was 1300 nM and the ED50 [2] was 2600 nM.
`O=c1c2ccccc2nc(-c2ccc([N+](=O)[O-])cc2)n1/N=C/c1c(O)ccc2ccccc12` showed an ED50 [1] of 900 nM and an ED50 [2] of 2600 nM.
For `O=C(Cn1c(-c2ccccn2)nc2ccccc21)c1ccc(O)c(O)c1`, the ED50 [1] was 600 nM and the ED50 [2] was 2600 nM.
Compound `O=C(Cn1c(-c2ccccn2)nc2ccccc21)c1ccc([N+](=O)[O-])cc1` has an ED50 [1] of 600 nM and an ED50 [2] of 2600 nM.
